Patent US9630947B2, “Therapeutic compounds and related methods of use” (OTSUKA PHARMACEUTICAL CO., LTD., priority 2009, dated 2017)

Biological target: T1, purified STEP46 enzyme (Homo sapiens, UniProt P54829)
T1 sequence (P54829 1-565): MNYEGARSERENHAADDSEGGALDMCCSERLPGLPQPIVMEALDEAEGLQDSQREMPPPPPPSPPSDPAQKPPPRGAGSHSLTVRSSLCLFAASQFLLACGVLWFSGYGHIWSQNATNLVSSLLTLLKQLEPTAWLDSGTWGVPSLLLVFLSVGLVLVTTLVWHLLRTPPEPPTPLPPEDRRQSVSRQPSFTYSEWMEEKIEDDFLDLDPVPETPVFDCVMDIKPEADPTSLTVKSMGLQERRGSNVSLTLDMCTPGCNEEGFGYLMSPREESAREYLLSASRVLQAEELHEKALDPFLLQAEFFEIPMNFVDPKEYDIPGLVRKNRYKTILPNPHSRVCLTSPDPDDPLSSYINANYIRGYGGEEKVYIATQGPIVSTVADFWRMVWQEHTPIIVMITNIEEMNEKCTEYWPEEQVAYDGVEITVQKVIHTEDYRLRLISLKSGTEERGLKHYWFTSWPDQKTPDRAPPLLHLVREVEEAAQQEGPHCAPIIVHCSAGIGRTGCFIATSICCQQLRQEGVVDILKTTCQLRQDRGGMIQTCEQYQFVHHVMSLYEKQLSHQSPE
Assay: STEP46 biochemical assay (DiFMUP fluorescence phosphatase assay)
Conditions: DiFMUP 10 μM, read-out: STEP IC50
Outline: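 Compounds preincubated 30 min at room temperature with purified STEP46 (1 ng/well) in 50 mM Hepes, 1 mM DTT, 0.02% Brij35, then 10 μM DiFMUP (final) added for 90 min at 27 °C; 2% DMSO, fluorescence at 360/460 nm. IC50 from four-parameter fit of % inhibition; activators reported as negative % inhibition at 25, 50 and 100 uM.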

| Compound | IC50 [nM] |
| --- | --- |
| CNc1nc(-c2cccnc2)nc2cc(-c3cccc(F)c3)c(C)cc12 [Compound 1402] | 1000 to 10000 |
| Cc1ccc(F)c(-c2ccc3nc(-c4cccnc4)nc(Nc4ccc(F)c(Cl)c4)c3c2)c1 [Compound 669] | < 1000 |
| COc1ccc2nc(-c3cccnc3)nc(Nc3nc(-c4c(F)cccc4F)cs3)c2c1 [Compound 459] | < 1000 |
| Cc1cc(Cl)cc2c(Nc3cc(Cl)cc(Cl)c3)nc(-c3cnccn3)nc12 [Compound 1229] | 1000 to 10000 |
| CN(C)C(=O)COc1ccc2nc(-c3cccnc3)nc(Oc3ccc(F)c(Cl)c3)c2c1 [Compound 846] | 1000 to 10000 |
| NC(=O)c1cccc(-c2ccc3c(Nc4ccc(F)c(Cl)c4)nc(-c4cccnc4)nc3c2)c1 [Compound 691] | < 1000 |
| N#Cc1cccc(Nc2nc(-c3cnccn3)nc3cc(Cl)ccc23)c1 [Compound 1144] | 1000 to 10000 |
| N#Cc1cccc(Nc2nc(-c3cnccn3)nc3ccc(Cl)cc23)c1 [Compound 1158] | 1000 to 10000 |
| CNc1nc(-c2cccnc2)nc2cc(-c3ccccc3)ccc12 [Compound 1348] | > 10000 |
| Fc1cccc(-c2ccc3nc(-c4cccnc4)nc(Nc4ccc(F)c(Cl)c4)c3c2)c1 [Compound 634] | 1000 to 10000 |
| CNc1nc(-c2cccnc2)nc2c(C)c(-c3cc(F)ccc3F)ccc12 [Compound 1450] | 1000 to 10000 |
| CNc1nc(-c2cccnc2)nc2cc(-c3ccccc3OC)c(C)cc12 [Compound 1411] | > 10000 |
| COc1ccc2nc(-c3cccnc3)nc(Nc3nc(-c4ccccc4OC(F)(F)F)cs3)c2c1 [Compound 454] | 1000 to 10000 |
| CN(C)c1ccc2nc(-c3ccnnc3)nc(Nc3cccc(OC(F)F)c3)c2c1 [Compound 1153] | 1000 to 10000 |
| FC(F)Oc1cc(Cl)cc(Nc2nc(-c3cccnc3)nc3ccccc23)c1 [Compound 1213] | 1000 to 10000 |
| CNc1nc(-c2cccnc2)nc2ccc(-c3cccc4sccc34)cc12 [Compound 1340] | 1000 to 10000 |
| Cc1cc(Cl)cc2c(Nc3ccccc3C(=O)O)nc(-c3cnccn3)nc12 [Compound 1227] | 1000 to 10000 |
| NC(=O)c1ccccc1Nc1nc(-c2cccnc2)nc2cc(-c3cccc(F)c3F)ccc12 [Compound 705] | < 1000 |
| CNc1nc(-c2cccnc2)nc2cc(-c3cccc(C#N)c3)c(C)cc12 [Compound 1409] | 1000 to 10000 |
| CNc1nc(-c2cccnc2)nc2cc(-c3cccc(C#N)c3)ccc12 [Compound 1364] | 1000 to 10000 |
| COc1ccc2nc(-c3cccnc3)nc(Nc3ccccc3C(=O)NCc3occc3C)c2c1 [Compound 901] | 1000 to 10000 |
| CCOc1ccc2nc(-c3cncnc3)nc(Nc3ccccc3C(N)=O)c2c1 [Compound 1171] | 1000 to 10000 |
| N#Cc1cccc(-c2ccc3nc(-c4cccnc4)nc(Nc4ccc(F)c(Cl)c4)c3c2)c1 [Compound 633] | 1000 to 10000 |
| Cc1cc(Cl)cc2c(Nc3ccccc3C(N)=O)nc(-c3cnccn3)nc12 [Compound 1226] | 1000 to 10000 |
| COc1ccc2nc(-c3ccnnc3)nc(Nc3ccc(Cl)c(Cl)c3)c2c1 [Compound 1184] | 1000 to 10000 |

| Compound | IC50 [nM] |
| --- | --- |
| COc1ccc2nc(-c3cccnc3)nc(Nc3ccc(C)c(C)c3)c2c1 [Compound 923] | 1000 to 10000 |
| CNc1nc(-c2cccnc2)nc2cc(-c3ccc(F)cc3F)ccc12 [Compound 1372] | 1000 to 10000 |
| Fc1ccc(-c2ccc3c(Nc4ccc(F)c(Cl)c4)nc(-c4cccnc4)nc3c2)c(F)c1 [Compound 698] | < 1000 |
| FC(F)Oc1cc(Cl)cc(Nc2nc(-c3ccnnc3)nc3ccccc23)c1 [Compound 1212] | 1000 to 10000 |
| CNc1nc(-c2cccnc2)nc2ccc(-c3cc(F)c(F)cc3F)cc12 [Compound 1376] | 1000 to 10000 |
| CNc1nc(-c2cccnc2)nc2ccc(-c3cccc(OC)c3)cc12 [Compound 1248] | 1000 to 10000 |
| CCOc1ccc2nc(-c3cccnc3)nc(Nc3nc(-c4cccc(F)c4F)cs3)c2c1 [Compound 470] | 1000 to 10000 |
| COc1ccc2nc(-c3cccnc3)nc(Nc3ccccc3C(=O)NC(C)c3ccc(C(F)(F)F)cc3)c2c1 (stereo not drawn) [Compound 889] | 1000 to 10000 |
| CN(C)c1nc(-c2cccnc2)nc2ccc(-c3ccc(F)cc3F)cc12 [Compound 1381] | 1000 to 10000 |
| COc1cccc(-c2ccc3nc(-c4cccnc4)nc(Nc4ccc(F)c(Cl)c4)c3c2)c1OC [Compound 644] | 1000 to 10000 |
| COc1ccc2nc(-c3cnccn3)nc(Nc3ccc(F)c(F)c3)c2c1 [Compound 1192] | 1000 to 10000 |
| COc1ccc2nc(-c3cccnc3)nc(Nc3nc(-c4cc(F)ccc4F)cs3)c2c1 [Compound 458] | < 1000 |
| COCCN(C)c1nc(-c2cccnc2)nc2ccc(-c3cccc(F)c3F)cc12 [Compound 1391] | > 10000 |
| Cc1cc(Cl)cc2c(Nc3cccc(OC(F)F)c3)nc(-c3ccnnc3)nc12 [Compound 1165] | < 1000 |
| CN(C)c1nc(-c2cccnc2)nc2ccc(-c3ccc([N+](=O)[O-])cc3)cc12 [Compound 1336] | 1000 to 10000 |
| CNc1nc(-c2cccnc2)nc2cc(-c3ccc(Cl)cc3)ccc12 [Compound 1354] | 1000 to 10000 |
| O=[N+]([O-])c1cccc(-c2ccc3nc(-c4cccnc4)nc(Nc4ccc(F)c(Cl)c4)c3c2)c1 [Compound 635] | < 1000 |
| CNc1nc(-c2cccnc2)nc2c(C)c(-c3ccc(OC)cc3)ccc12 [Compound 1455] | 1000 to 10000 |
| CNc1nc(-c2cccnc2)nc2cc(-c3cccc(C)c3)ccc12 [Compound 1361] | > 10000 |
| FC(F)(F)Oc1cccc(Nc2nc(-c3cnccn3)nc3ccccc23)c1 [Compound 1150] | > 10000 |
| COc1ccc2c(Nc3ccc(F)c(Cl)c3)nc(-c3cnccn3)nc2c1 [Compound 1148] | 1000 to 10000 |
| COc1ccc2nc(-c3cccnc3)nc(Nc3ccc(Br)cc3)c2c1 [Compound 421] | > 10000 |
| CNc1c(-c2ccc(C#N)cc2)ccc2nc(-c3cccnc3)nc(C)c12 [Compound 1424] | > 10000 |
| COc1ccc2nc(-c3cccnc3)nc(Nc3ccc4ccoc4c3)c2c1 [Compound 314] | 1000 to 10000 |
| COc1ccc2nc(-c3cccnc3)nc(Nc3nc(-c4ccc(C#N)cc4)cs3)c2c1 [Compound 448] | < 1000 |

| Compound | IC50 [nM] |
| --- | --- |
| Fc1ccc(Nc2nc(-c3cccnc3)nc3cc(-c4cncnc4)ccc23)cc1Cl [Compound 678] | 1000 to 10000 |
| Fc1ccc(F)c(-c2ccc3c(Nc4ccc(F)c(Cl)c4)nc(-c4cccnc4)nc3c2)c1 [Compound 676] | < 1000 |
| COc1ccc2nc(-c3cccnc3)nc(Nc3nc(-c4ccccc4Cl)cs3)c2c1 [Compound 431] | < 1000 |
| Fc1ccc(Nc2nc(-c3cccnc3)nc3ccc(-c4ccsc4)cc23)cc1Cl [Compound 648] | 1000 to 10000 |
| NC(=O)c1ccccc1-c1ccc2c(Nc3ccc(F)c(Cl)c3)nc(-c3cccnc3)nc2c1 [Compound 683] | 1000 to 10000 |
| NC(=O)c1ccccc1Nc1nc(-c2cccnc2)nc2cc(-c3ccc(F)cc3)ccc12 [Compound 701] | 1000 to 10000 |
| COc1ccc2nc(-c3cccnc3)nc(Nc3ccc4sc(=O)n(C)c4c3)c2c1 [Compound 327] | 1000 to 10000 |
| CNc1nc(-c2cccnc2)nc2cc(-c3cc(F)cc(F)c3)ccc12 [Compound 1374] | 1000 to 10000 |
| CNc1nc(-c2cccnc2)nc2cc(-c3ccccc3F)c(C)cc12 [Compound 1403] | > 10000 |
| COc1ccc2nc(-c3cccnc3)nc(Nc3nnc(-c4ccc(F)cc4)s3)c2c1 [Compound 423] | 1000 to 10000 |
| CNc1nc(-c2cccnc2)nc2cc(-c3cc(F)ccc3F)c(C)cc12 [Compound 1406] | 1000 to 10000 |
| Cc1cccc2c(Nc3ccc(Cl)c(Cl)c3)nc(-c3cnccn3)nc12 [Compound 1178] | 1000 to 10000 |
| COc1cccc(-c2csc(Nc3nc(-c4cccnc4)nc4ccc(OC)cc34)n2)c1 [Compound 434] | 1000 to 10000 |
| CCOc1ccc2nc(-c3cccnc3)nc(Nc3ccccc3C(N)=O)c2c1 [Compound 73] | 1000 to 10000 |
| COc1ccc2nc(-c3cccnc3)nc(Nc3nc(-c4ccccc4)c(C)s3)c2c1 [Compound 456] | < 1000 |
| Fc1ccc(Nc2nc(-c3cccnc3)nc3ccc(-c4ccoc4)cc23)cc1Cl [Compound 647] | 1000 to 10000 |
| Cc1cccc(-c2ccc3nc(-c4cccnc4)nc(Nc4ccc(F)c(Cl)c4)c3c2)c1 [Compound 632] | < 1000 |
| N#Cc1ccccc1-c1ccc2nc(-c3cccnc3)nc(Nc3ccc(F)c(Cl)c3)c2c1 [Compound 639] | < 1000 |
| CCCOCCOc1cccc(-c2ccc3nc(-c4cccnc4)nc(NC)c3c2)c1 [Compound 1497] | 1000 to 10000 |
| CNc1nc(-c2cccnc2)nc2cc(-c3ccccc3Cl)ccc12 [Compound 1352] | > 10000 |
| CNc1nc(-c2cccnc2)nc2cc(-c3cccc(F)c3F)ccc12 [Compound 1371] | 1000 to 10000 |
| N#Cc1ccccc1-c1ccc2c(Nc3ccc(F)c(Cl)c3)nc(-c3cccnc3)nc2c1 [Compound 685] | < 1000 |
| CNc1nc(-c2ccncc2)nc2ccc(-c3ccc(F)cc3F)cc12 [Compound 1467] | 1000 to 10000 |
| COc1ccc(OC)c(-c2ccc3nc(-c4cccnc4)nc(Nc4ccc(F)c(Cl)c4)c3c2)c1 [Compound 645] | 1000 to 10000 |
| COc1ccc2nc(-c3cccnc3)nc(Nc3ccc4sc(=O)[nH]c4c3)c2c1 [Compound 326] | 1000 to 10000 |
